This passage reports EC50 results from patent publication US12281119B2, “Imidazo[2,1-f][1,2,4]triazin-4-amine derivatives as TLR7 agonist” (BEIGENE, LTD., priority 2019, dated 2025).

Test [1] has as its target T1, human TLR7 (Homo sapiens, UniProt Q9NYK1).
T1 sequence (Q9NYK1 27-1049): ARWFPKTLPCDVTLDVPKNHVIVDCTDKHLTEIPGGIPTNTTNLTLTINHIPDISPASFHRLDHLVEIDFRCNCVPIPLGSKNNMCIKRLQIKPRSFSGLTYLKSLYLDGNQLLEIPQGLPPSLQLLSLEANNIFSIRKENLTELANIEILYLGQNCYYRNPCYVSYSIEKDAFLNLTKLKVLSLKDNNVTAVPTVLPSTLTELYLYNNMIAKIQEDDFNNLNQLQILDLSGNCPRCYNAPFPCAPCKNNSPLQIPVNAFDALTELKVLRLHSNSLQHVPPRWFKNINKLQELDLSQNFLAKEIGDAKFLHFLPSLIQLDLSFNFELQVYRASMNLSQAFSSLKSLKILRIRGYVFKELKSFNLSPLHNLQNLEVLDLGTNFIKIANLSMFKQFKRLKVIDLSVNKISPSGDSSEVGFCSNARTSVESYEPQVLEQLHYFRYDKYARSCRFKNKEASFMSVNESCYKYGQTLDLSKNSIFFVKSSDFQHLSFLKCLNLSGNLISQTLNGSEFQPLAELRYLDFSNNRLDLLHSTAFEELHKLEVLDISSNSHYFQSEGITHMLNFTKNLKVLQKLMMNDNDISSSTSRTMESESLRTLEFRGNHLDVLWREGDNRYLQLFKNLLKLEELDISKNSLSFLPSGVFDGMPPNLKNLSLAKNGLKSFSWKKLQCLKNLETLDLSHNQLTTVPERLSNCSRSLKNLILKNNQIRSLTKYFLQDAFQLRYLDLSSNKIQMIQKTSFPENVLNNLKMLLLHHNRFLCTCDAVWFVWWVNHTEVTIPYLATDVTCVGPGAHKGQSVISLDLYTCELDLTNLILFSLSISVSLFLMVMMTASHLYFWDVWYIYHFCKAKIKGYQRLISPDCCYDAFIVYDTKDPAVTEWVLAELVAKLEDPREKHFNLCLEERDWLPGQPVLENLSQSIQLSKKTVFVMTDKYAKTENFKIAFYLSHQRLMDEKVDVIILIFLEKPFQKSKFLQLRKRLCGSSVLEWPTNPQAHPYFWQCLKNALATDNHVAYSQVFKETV
Description: TLR7 stimulation determined using HEK-Blue Detection. It counts as cell-based. The arrangement: expressed in transfected cells; host or cells: HEK293 (HEK-Blue hTLR7). The following applies: HEK-Blue hTLR7 cells, HEK-Blue Detection (A77-A124), 16 hr, relative to Resiquimod maximum. In a few lines: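 HEK-Blue hTLR7 cells (HEK293 with NF-κB/AP-1-driven SEAP reporter), 40000 cells/well, treated with 10-point dilutions from 0.04 nM to 10 μM final in 0.1% DMSO for 16 h at 37° C. SEAP read as OD 620-655 nm; EC50 derived from % of maximum activation with resiquimod.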

Test [2] deals with T2, human TLR 8 protein (Homo sapiens, UniProt Q9NR97).
T2 construct: expressed in transfected cells; host or cells: HEK293 (HEK-Blue hTLR8)
T2 sequence (Q9NR97 27-1041): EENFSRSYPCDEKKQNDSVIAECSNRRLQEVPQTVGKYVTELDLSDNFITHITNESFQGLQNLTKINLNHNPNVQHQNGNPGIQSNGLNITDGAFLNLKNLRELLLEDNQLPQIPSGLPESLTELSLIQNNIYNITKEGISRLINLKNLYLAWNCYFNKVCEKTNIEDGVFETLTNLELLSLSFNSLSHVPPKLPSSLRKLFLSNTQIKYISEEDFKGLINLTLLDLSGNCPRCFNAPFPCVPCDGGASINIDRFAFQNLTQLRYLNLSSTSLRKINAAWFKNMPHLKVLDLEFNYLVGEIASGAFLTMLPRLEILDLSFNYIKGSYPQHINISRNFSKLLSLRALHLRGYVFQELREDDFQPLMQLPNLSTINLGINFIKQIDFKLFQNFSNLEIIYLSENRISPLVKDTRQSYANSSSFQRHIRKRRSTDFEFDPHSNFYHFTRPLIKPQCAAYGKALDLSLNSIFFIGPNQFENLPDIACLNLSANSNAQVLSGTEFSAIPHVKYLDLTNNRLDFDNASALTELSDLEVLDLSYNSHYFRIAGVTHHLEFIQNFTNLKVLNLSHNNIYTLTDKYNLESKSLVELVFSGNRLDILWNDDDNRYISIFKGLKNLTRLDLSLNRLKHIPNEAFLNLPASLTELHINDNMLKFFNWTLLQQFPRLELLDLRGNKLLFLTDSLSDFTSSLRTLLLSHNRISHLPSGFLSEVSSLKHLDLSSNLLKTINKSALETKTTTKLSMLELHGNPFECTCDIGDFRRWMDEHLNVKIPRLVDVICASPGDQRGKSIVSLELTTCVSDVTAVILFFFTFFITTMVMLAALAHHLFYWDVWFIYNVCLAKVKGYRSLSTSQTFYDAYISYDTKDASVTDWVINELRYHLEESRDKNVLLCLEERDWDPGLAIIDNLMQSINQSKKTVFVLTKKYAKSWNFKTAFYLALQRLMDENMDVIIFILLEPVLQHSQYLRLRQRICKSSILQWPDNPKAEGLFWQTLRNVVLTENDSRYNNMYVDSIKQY
The test is described as follows: TLR8 stimulation determined using HEK-Blue Detection. It counts as cell-based. The following applies: HEK-Blue hTLR8 cells, 16 hr, relative to Resiquimod or Motolimod maximum. The method in brief:
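HEK-Blue hTLR8 cells with NF-κB/AP-1-driven SEAP reporter, 40000 cells/well, treated with 10-point dilutions (1 nM-10 uM final, 0.1% DMSO) for 16 hr at 37° C. SEAP read as OD 620-655 nm. EC50 derived from percent of maximum activation set by Resiquimod or Motolimod.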

For orientation: EC50 means the concentration giving half of the maximal effect. Low readings indicate higher potency in that assay, high ones lower potency in that assay. `CCC(CC)Oc1nc(N)c2ncc(Cc3ccc(OCCNC)nc3)n2n1` [Compound A83, 7-((6-(2-(methylamino)ethoxy)pyridin-3-yl)methyl)-2-(pentan-3-yloxy)imidazo[2,1-f][1,2,4]triazin-4-amine]: the EC50 in test [1] stood at 0.0426 µM; in test [2] it was 0.458 µM.

For the molecule `CCCC(CC)Oc1nc(N)c2ncc(Cc3ccc(OCCNC)nc3)n2n1` (stereo not shown) [Compound A84, 2-(hexan-3-yloxy)-7-((6-(2-(methylamino)ethoxy)pyridin-3-yl)methyl)imidazo[2,1-f][1,2,4]triazin-4-amine], the EC50 in test [1] worked out at 0.0069 µM; in test [2], 0.192 µM.

In the case of `CCCC(CCO)Oc1nc(N)c2ncc(Cc3ccc(OCCNC)cc3)n2n1` (stereo not shown) [Compound A85, 3-((4-amino-7-(4-(2-(methylamino)ethoxy)benzyl)imidazo [2,1-f][1,2,4]triazin-2-yl)oxy)hexan-1-ol], the values for the EC50 in test [1] and in test [2] were 0.0045 µM and 0.041 µM, respectively.

Regarding `CCCC(CCO)Oc1nc(N)c2ncc(Cc3ccc(OCCCNC)nc3)n2n1` (stereo not shown) [Compound A86, 3-((4-amino-7-((6-(3-(methylamino)propoxy)pyridin-3-yl)methyl)imidazo[2,1-f][1,2,4]triazin-2-yl)oxy)hexan-1-ol], the EC50 stood at 0.0577 µM in test [1] and 0.541 µM in test [2].

Turning to `CCCC(CCC)Oc1nc(N)c2ncc(Cc3ccc(OCCNC)nc3)n2n1` [Compound A87, 2-(heptan-4-yloxy)-7-((6-(2-(methylamino)ethoxy)pyridin-3-yl)methyl)imidazo[2,1-f][1,2,4]triazin-4-amine], the EC50 in test [1] came out at 0.0105 µM; in test [2], 0.434 µM.

Turning to `CNCCOc1ccc(Cc2cnc3c(N)nc(OCC4CCCO4)nn23)cn1` (stereo not shown) [Compound A88, 7-((6-(2-(methylamino)ethoxy)pyridin-3-yl)methyl)-2-((tetrahydrofuran-2-yl)methoxy)imidazo[2,1-f][1,2,4]triazin-4-amine], the EC50 in test [1] and in test [2] was more than 10 µM throughout.

With `CC[C@H](C)Oc1nc(N)c2ncc(Cc3ccc(OCCNC)nc3)n2n1` [Compound A89, (S)-2-(sec-butoxy)-7-((6-(2-(methylamino)ethoxy)pyridin-3-yl)methyl)imidazo[2,1-f][1,2,4]triazin-4-amine], the EC50 amounted to 0.01 µM in test [1] and 0.199 µM in test [2].

For `CCC[C@H](C)Oc1nc(N)c2ncc(Cc3ccc(OCCNC)nc3)n2n1` [Compound A90, (S)-7-((6-(2-(methylamino)ethoxy)pyridin-3-yl)methyl)-2-(pentan-2-yloxy)imidazo[2,1-f][1,2,4]triazin-4-amine], the results for the EC50 in test [1] and in test [2] were 0.0089 µM and 0.112 µM, respectively.

`CCCC(CCO)Oc1nc(N)c2ncc(Cc3ccc(OCCNC)c(F)c3)n2n1` (stereo not shown) [Compound A91, 3-((4-amino-7-(3-fluoro-4-(2-(methylamino)ethoxy)benzyl)imidazo[2,1-f][1,2,4]triazin-2-yl)oxy)hexan-1-ol]: the EC50 in test [1] came out at 0.0021 µM; in test [2] it was 0.015 µM.

Consider `CCCC(CCO)Oc1nc(N)c2ncc(Cc3ccc(N(C)CCNC)cc3)n2n1` (stereo not shown) [Compound A94, 3-((4-amino-7-(4-(methyl(2-(methylamino)ethyl)amino)benzyl)imidazo[2,1-f][1,2,4]triazin-2-yl)oxy)hexan-1-ol], for which the EC50 in test [1] was found to be 0.0138 µM; in test [2], 0.146 µM.

For `CCCC(CCO)Oc1nc(N)c2ncc(Cc3ccc(CCNC)cc3)n2n1` (stereo not shown) [Compound A95, 3-((4-amino-7-(4-(2-(methylamino)ethyl)benzyl)imidazo[2,1-f][1,2,4]triazin-2-yl)oxy)hexan-1-ol], the results for the EC50 in test [1] and in test [2] were 0.008 µM and 0.019 µM, respectively.

As for `CCCC(CCO)Oc1nc(N)c2ncc(Cc3ccc(OCCNC)nc3OC)n2n1` (stereo not shown) [Compound A96, 3-((4-amino-7-((2-methoxy-6-(2-(methylamino)ethoxy)pyridin-3-yl)methyl)imidazo[2,1-f][1,2,4]triazin-2-yl)oxy)hexan-1-ol], the EC50 was 0.0043 µM in test [1] and 0.029 µM in test [2].

Turning to `CCCC(CCO)Oc1nc(N)c2ncc(Cc3ccc(OCCNC)cc3F)n2n1` (stereo not shown) [Compound A97, 3-((4-amino-7-(2-fluoro-4-(2-(methylamino)ethoxy)benzyl)imidazo[2,1-f][1,2,4]triazin-2-yl)oxy)hexan-1-ol], the EC50 in test [1] amounted to 0.001 µM; in test [2], 0.01 µM.

As for `CCCC(CCO)Oc1nc(N)c2ncc(Cc3ccc(OCCNC)c(OC)c3)n2n1` (stereo not shown) [Compound A98, 3-((4-amino-7-(3-methoxy-4-(2-(methylamino)ethoxy)benzyl)imidazo[2,1-f][1,2,4]triazin-2-yl)oxy)hexan-1-ol], the EC50 in test [1] stood at 0.011 µM; in test [2] it was 0.163 µM.

As to `CCC[C@H](C)Oc1nc(N)c2ncc(Cc3ccc(OCCNC)c(F)c3)n2n1` [Compound A99, (S)-7-(3-fluoro-4-(2-(methylamino)ethoxy)benzyl)-2-(pentan-2-yloxy)imidazo[2,1-f][1,2,4]triazin-4-amine], the EC50 in test [1] is 0.0144 µM; in test [2], 0.129 µM.

`CCC[C@H](C)Oc1nc(N)c2ncc(Cc3ccc(OCCNC)cc3)n2n1` [Compound A100, (S)-7-(4-(2-(methylamino)ethoxy)benzyl)-2-(pentan-2-yloxy)imidazo[2,1-f][1,2,4]triazin-4-amine]: the EC50 was found to be 0.015 µM in test [1] and 0.195 µM in test [2].

As to `CCCC(CCO)Oc1nc(N)c2ncc(Cc3ccc(OCCNC)c(Cl)c3)n2n1` (stereo not shown) [Compound A102, 3-((4-amino-7-(3-chloro-4-(2-(methylamino)ethoxy)benzyl)imidazo[2,1-f][1,2,4]triazin-2-yl)oxy)hexan-1-ol], the EC50 stood at 0.0037 µM in test [1] and 0.134 µM in test [2].
